Series [1] can be described thus: Acute toxicity (lethal dose) in Swiss mice, parenteral and oral. The following applies: mouse, in vivo. On the procedure: The acute toxicity of the compounds of the invention was determined on Swiss mice parenterally, (intravenously, intraperitoneally, subcutaneously) and orally.
Measurement of the lethal doses of N-(1-methyl-2-pyrrolidinylmethyl)-2,3-dimethoxy-5-methylsulphamoyl benzamide (compound 1) and its levorotatory isomer (compound 2) gave the following results: […]

In another series the test system is rabbit. Nature of the series: Cystomanometry in the anesthetized rabbit. The series is classed as in vivo. On the procedure:
(§1) A pharmacological study of the compound of the invention which consisted of studying its action on the results of cystomanometry in the rabbit and rat was performed under the following conditions: the animals were anesthesized with pentobarbitol and were given artificial respiration. The left outer jugular vein was catheterized to permit the I.V. injection of the studied product. The bladder was then exteriorized and the two ureters were connected and provided with two catheters, one of which was used to measure the intravesical pressure and the other for the vesical filling.
(§2) The vesical was filled by perfusion of 0.9% salt water at a constant flow rate of 40 ml/min for the rabbit and 5 ml/min for the rat.
(§3) The intravesical pressure before perfusion and the perfused water volume were measured.
(§4) The following parameters were studied: the intravesical pressure before perfusion P1 the intravesical pressure at the time of starting urination P2 […]
(§5) the volume of salt water perfused the quantity discharged during urination the residual quantity only in the bladder.
The cystomanometry study was performed under the following conditions: a first perfusion was carried out after stabilising the preparation for 5 minutes a second perfusion was carried out 15 minutes after the first a third perfusion was carried out 5 minutes after the second.
The study was performed by chronic and acute administration to the rabbit and acute administration to the rat.
The study of the rabbit was performed in the following manner:
10 male rabbits having an average weight of 2500±100 g were used as the control batch for the chronic administration study, 10 male rabbits with an average weight of 2500±100 g were treated every morning for 8 days with N-(1-methyl-2-pyrrolidinylmethyl)-2,3-dimethoxy-5-methylsulphamoyl benzamide intramuscularly injected at a dosage of 10 mg/kg/day. The final injection was carried out 30 minutes before the experiment […]
for the acute administration study 2 batches of 10 male rabbits with an average weight of 2500±100 g were treated with N-(1-methyl-2-pyrrolidinylmethyl)-2,3-dimethoxy-5-methylsulphamoyl benzamide intravenously administered at doses of 5 and 50 mg/kg.
For the controls and for all the treated batches the first perfusion is used as a standard for the following perfusions (each animal serving as its own control).
In the case of the acute administration of N-(1-methyl-2-pyrrolidinylmethyl)-2,3-dimethoxy-5-methylsulphamoyl benzamide to both the rabbit and the rat the product was injected at the end of the first perfusion.
There was a delay of 15 minutes before the two other perfusions (this was also respected for the controls in order to adhere to the same experimental conditions).

The next series relates to rat. As to the kind of experiment: Cystomanometry in the anesthetized rat. The series is classed as in vivo. As for the experimental part:
as §1, §2, §3, §4, §5
The cystomanometry study was performed under the following conditions: a first perfusion was carried out after stabilising the preparation for 5 minutes a second perfusion was carried out 15 minutes after the first a third perfusion was carried out 5 minutes after the second. […]

Another series relates to man. Nature of the series: Gaseous cystomanometric study in man (cases of serious neurological bladder). Format: in vivo. On the procedure: A person suffering from multiple sclerosis suffered from incontinence, pollakisuria and the very frequent need to urinate. The intramuscular injection of two 100 mg ampules of the compound of the invention delayed the need to urinate for a volume of 150 cm^3, compared with 80 cm^3 before treatment.
A person having psychogenic urinary disorders with incontinence and pollakisuria received two 100 mg ampules of the compound according to the invention by the intramuscular route. They only needed to urinate for a volume of 400 cm^3, compared with 200 cm^3 before treatment. They were able to voluntarily prevent urination for 2 minutes compared with 15 seconds before treatment.

For series [2], the system named is cystalgias with clear urine in women. Nature of the series: Double blind study in females versus placebo (cystalgias with clear urine). Format: in vivo. On the procedure: cystalgias with clear urine in women.
(§6) 2. To check these impressions, two studies were carried out according to the double blind procedure:
Due to the absence of a reference product the activity of the present product was compared with a placebo.

In series [3] the test system is functional disorders of the lower urinary apparatus of men. As to the kind of experiment: Double blind study in males versus lipidosterolic complex extracted from pygeum africanum (prostatism). Format: in vivo. On the procedure:
functional disorders of the lower urinary apparatus of men and particularly in the case of prostatism
as §6
The study was carried out in comparison with the only possible reference product: lipidosterolic complex extracted from pygeum africanum.

The nature of series [4]: Clinical tolerance and ease of oral treatment in both indications. The series is classed as in vivo, men and women. The text has this: For both the above indications, the ease of oral treatment was appreciated and the tolerance was excellent.
Another series deals with pelvic spasms. Nature of the series: Treatment of pelvic spasms on probe after urological gynecological surgery. The series is classed as in vivo. The following applies: intramuscular or intravenous.
Where [5] appears, read: intravenous, read-out: LD50 I.V.
Setting [6] is: ip, intraperitoneal, read-out: LD50 I.P.
[7] abbreviates: sc, subcutaneous, read-out: LD50 S.C.

The text below walks through data of patent publication US4263316A, “N-(1-Methyl-2-pyrrolidinylmethyl)-2,3-dimethoxy-5-methylsulfamoyl benzamide and its derivatives, methods of preparing them and their application to the treatment of troubles of the lower part of the body” (Societe d'Etudes Scientifiques et Industrielles de l'Ile de …, priority 1978, dated 1981).

Read-outs that look alike come from different tables or passages of the source.

Broadly, the LD50 is the dose at which mortality reaches 50%. Regarding `CNS(=O)(=O)c1cc(OC)c(OC)c(C(=O)NCC2CCCN2C)c1` (single isomer, unassigned) [Compound 2, Levorotatory N-(1-methyl-2-pyrrolidinylmethyl)-2,3-dimethoxy-5-methylsulphamoyl benzamide], the median lethal dose (LD50) in series [1] (setting [5]) was 90 to 94.6 mg/kg; in series [1] (setting [6]), 310 to 336 mg/kg; in series [1] (oral, read-out: LD50 P.O.), 1080 to 1150 mg/kg; in series [1] (setting [7]) it was 741 to 780 mg/kg.

Regarding `CNS(=O)(=O)c1cc(OC)c(OC)c(C(=O)NCC2CCCN2C)c1` (stereo not drawn) [Compound 1, N-(1-methyl-2-pyrrolidinylmethyl)-2,3-dimethoxy-5-methylsulphamoyl benzamide], the 50% lethal dose (LD50) is 130 to 135 mg/kg in series [1] (setting [5]); 315 to 323 mg/kg in series [1] (setting [6]); 992 to 1050 mg/kg in series [1] (oral, read-out: LD50 P.O.); 936 to 960 mg/kg in series [1] (setting [7]). Moreover, the urinary threshold result in the series with rabbit (anesthetized rabbit) is on record as “lowers the urinary threshold”. In the series with rabbit (rabbit, acute I.V. 5 and 50 mg/kg), the “significance of differences compared with the controls” value is “highly significant”. Besides, the “variations of the same parameters (ΔP, perfusion volume)” value with rabbit (rabbit, acute I.V. 5 and 50 mg/kg, second and third perfusions, compared with chronic administration) is “Variations in the same direction of the same parameters and in the same proportions”. Besides, the “decrease of the perfusion volume compared with the controls” value in the series on rabbit (rabbit, intramuscular, 10 mg/kg/day for 8 days) is given as “about half”. Further, in the series with rabbit (rabbit, intramuscular, 10 mg/kg/day for 8 days, as from the first perfusion), the “reduction of ΔP (P2 - P1) compared with control batch” value was “about a third”. Besides, the “difference of ΔP compared with the controls at the third perfusion” value in the series with rabbit (rabbit, intramuscular, 10 mg/kg/day for 8 days, third perfusion) is “reduced at the third perfusion”. Moreover, the “same phenomena as in the rabbit (ΔP, perfusion volume)” value in the series with rat (acute I.V. 50 and 100 mg/kg) was “not observed”. Moreover, the urinary volume entry in the series with rat (second and third perfusions, particularly at I.V. dosage of 50 mg/kg) is on record as “significant increase”. Besides, the vesical tolerance result with man (man, two cases of serious neurological bladder) was “increase in the vesical tolerance”. The “volume at which need to urinate occurs” value worked out at 150 cm^3 in the series on man (person, multiple sclerosis, intramuscular, two 100 mg ampules, 80 cm^3 before treatment) and 400 cm^3 with man (person, psychogenic urinary disorders, intramuscular, two 100 mg ampules, 200 cm^3 before treatment). Besides, the “time of voluntary prevention of urination” value with man (person, psychogenic urinary disorders, intramuscular, two 100 mg ampules, 15 seconds before treatment) was found to be 2 min. Moreover, the superiority over placebo result in series [2] is “very significant”. Also, the “superiority over lipidosterolic complex extracted from pygeum africanum” value in series [3] is listed as “statistically significant”. In series [4], the tolerance entry is on record as “excellent”. Further, the “activity in the treatment of pelvic spasms” value with pelvic spasms is given as “remarkably active”.
